Assay results as given in US10844077B2, “Thiazolyl-containing compounds for treating proliferative diseases” (Dana-Farber Cancer Institute, Inc., priority 2014, dated 2020).
Where “and” joins values, the source holds several entries; their conditions need not be identical. Equal values may be shown once.

Tests used:
Format in all cases: cell-based
[1] = target: MAP2K4 (Homo sapiens (Human), UniProt P45985); experiment: KINATIV assay; conditions: 1 μM, 90 minutes, BCWM.1 cells
Outline: (§1)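 An ATP-biotin probe is applied directly to lysates of harvested cells, and the kinases it binds are identified and quantified via ACTIVX.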

[2] = target: GCK (Homo sapiens (Human), UniProt Q12851); experiment: KINATIV assay; conditions: 1 μM, 90 minutes, BCWM.1 cells
Chain of GCK (Q12851 whole entry): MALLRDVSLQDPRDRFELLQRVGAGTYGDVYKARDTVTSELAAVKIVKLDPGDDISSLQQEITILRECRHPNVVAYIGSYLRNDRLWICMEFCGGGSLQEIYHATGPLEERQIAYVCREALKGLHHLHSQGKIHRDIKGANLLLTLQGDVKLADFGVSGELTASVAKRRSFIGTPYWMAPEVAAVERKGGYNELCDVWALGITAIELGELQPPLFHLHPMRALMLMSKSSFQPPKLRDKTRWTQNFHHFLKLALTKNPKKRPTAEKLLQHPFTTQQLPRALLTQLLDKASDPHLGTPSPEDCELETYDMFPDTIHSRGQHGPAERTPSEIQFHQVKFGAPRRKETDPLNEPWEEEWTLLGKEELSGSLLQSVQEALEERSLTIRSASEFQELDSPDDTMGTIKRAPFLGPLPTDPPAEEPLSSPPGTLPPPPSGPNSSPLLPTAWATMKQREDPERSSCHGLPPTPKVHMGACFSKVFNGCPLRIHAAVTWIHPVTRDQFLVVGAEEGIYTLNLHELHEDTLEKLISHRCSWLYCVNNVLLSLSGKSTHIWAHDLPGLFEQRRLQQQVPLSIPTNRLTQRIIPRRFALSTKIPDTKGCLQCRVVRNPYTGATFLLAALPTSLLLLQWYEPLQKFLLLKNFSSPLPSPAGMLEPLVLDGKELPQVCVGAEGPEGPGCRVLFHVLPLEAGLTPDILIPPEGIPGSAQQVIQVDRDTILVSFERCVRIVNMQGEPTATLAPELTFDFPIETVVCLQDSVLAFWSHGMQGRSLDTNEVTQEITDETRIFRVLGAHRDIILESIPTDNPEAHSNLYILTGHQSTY
Outline: as §1

[3] = target: FER (Homo sapiens (Human), UniProt P16591); experiment: KINATIV assay; conditions: 1 μM, 90 minutes, BCWM.1 cells
Chain of FER (P16591 whole entry): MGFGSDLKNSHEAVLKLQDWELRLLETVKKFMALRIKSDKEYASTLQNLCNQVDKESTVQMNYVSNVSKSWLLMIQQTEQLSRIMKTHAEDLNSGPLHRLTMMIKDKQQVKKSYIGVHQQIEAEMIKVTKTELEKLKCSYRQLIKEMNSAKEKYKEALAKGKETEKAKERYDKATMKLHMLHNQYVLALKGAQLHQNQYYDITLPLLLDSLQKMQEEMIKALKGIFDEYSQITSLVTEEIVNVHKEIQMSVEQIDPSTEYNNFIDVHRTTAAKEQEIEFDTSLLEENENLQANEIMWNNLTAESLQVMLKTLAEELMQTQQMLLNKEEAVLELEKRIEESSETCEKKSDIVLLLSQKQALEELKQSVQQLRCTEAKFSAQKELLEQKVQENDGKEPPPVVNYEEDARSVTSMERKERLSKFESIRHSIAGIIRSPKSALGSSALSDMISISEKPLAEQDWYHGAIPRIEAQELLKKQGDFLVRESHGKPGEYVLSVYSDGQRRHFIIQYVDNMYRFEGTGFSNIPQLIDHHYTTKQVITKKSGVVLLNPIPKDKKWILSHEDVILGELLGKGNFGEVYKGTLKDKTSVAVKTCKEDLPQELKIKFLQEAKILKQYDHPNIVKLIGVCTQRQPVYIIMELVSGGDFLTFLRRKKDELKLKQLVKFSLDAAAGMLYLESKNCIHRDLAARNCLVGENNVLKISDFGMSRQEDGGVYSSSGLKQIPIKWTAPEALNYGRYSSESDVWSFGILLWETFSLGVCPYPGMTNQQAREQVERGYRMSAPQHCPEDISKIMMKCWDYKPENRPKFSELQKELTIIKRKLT
Outline: as §1

[4] = target: CHK1 (Homo sapiens (Human), UniProt O14757); experiment: KINATIV assay; conditions: 1 μM, 90 minutes, BCWM.1 cells
Chain of CHK1 (O14757 whole entry): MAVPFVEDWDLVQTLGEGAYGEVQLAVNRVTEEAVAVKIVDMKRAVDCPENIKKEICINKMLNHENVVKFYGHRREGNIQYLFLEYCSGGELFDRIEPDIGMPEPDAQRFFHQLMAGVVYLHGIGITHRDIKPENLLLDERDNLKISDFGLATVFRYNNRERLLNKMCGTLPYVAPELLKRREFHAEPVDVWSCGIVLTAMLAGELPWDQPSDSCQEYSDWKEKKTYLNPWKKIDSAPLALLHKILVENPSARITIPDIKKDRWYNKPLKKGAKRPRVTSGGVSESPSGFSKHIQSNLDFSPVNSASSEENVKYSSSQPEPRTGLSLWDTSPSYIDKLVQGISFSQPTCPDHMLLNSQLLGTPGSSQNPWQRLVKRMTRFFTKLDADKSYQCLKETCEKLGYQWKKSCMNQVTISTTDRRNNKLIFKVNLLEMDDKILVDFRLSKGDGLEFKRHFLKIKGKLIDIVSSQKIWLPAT
Outline: as §1

[5] = target: CDK5 (Homo sapiens (Human), UniProt Q00535); experiment: KINATIV assay; conditions: 1 μM, 90 minutes, BCWM.1 cells
Chain of CDK5 (Q00535 whole entry): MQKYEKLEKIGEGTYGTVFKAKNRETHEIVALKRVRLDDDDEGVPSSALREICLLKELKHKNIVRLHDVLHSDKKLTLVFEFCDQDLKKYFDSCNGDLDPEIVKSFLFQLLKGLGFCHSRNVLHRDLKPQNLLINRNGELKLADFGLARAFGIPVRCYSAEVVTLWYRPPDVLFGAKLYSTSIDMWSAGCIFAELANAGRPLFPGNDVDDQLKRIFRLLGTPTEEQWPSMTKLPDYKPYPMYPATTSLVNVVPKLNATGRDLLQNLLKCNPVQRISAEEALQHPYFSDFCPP
Outline: as §1

[6] = target: IRAK4 (Homo sapiens (Human), UniProt Q9NWZ3); experiment: KINATIV assay; conditions: 1 μM, 90 minutes, BCWM.1 cells
Chain of IRAK4 (Q9NWZ3 whole entry): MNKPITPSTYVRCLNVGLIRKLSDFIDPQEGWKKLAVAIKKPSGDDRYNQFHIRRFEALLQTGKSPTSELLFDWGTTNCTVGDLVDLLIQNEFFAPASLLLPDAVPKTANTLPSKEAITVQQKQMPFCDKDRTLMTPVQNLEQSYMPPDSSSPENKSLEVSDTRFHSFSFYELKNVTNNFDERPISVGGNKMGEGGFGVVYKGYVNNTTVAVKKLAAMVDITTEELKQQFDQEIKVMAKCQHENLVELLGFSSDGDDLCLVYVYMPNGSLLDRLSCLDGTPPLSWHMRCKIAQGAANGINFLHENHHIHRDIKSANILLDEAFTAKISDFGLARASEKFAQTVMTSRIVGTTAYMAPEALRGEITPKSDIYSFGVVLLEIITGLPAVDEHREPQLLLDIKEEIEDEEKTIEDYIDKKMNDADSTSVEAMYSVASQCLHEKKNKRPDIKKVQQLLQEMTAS
Outline: as §1

[7] = target: PLK1 (Homo sapiens (Human), UniProt P53350); experiment: KINATIV assay; conditions: 1 μM, 90 minutes, BCWM.1 cells
Chain of PLK1 (P53350 whole entry): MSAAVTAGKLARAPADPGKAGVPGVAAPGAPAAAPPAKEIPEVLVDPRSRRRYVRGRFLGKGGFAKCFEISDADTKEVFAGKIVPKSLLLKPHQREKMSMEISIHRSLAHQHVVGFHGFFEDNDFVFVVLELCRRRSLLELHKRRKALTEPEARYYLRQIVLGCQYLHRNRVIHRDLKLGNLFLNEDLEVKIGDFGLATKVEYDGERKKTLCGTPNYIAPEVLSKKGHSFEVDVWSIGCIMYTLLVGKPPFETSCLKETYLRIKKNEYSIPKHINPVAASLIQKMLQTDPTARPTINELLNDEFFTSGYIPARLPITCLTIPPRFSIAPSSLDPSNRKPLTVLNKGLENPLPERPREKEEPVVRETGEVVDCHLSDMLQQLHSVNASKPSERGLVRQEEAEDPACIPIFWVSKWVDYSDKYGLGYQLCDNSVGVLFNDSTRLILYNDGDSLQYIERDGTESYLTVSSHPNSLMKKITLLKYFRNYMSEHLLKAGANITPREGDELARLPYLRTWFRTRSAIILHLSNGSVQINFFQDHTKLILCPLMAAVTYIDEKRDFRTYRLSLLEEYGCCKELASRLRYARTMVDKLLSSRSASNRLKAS
Outline: as §1

[8] = target: RSK1 domain 1 (Homo sapiens (Human), UniProt Q15418); experiment: KINATIV assay; conditions: 1 μM, 90 minutes, BCWM.1 cells
Chain of RSK1 domain 1 (Q15418 whole entry, the tested form may be a part): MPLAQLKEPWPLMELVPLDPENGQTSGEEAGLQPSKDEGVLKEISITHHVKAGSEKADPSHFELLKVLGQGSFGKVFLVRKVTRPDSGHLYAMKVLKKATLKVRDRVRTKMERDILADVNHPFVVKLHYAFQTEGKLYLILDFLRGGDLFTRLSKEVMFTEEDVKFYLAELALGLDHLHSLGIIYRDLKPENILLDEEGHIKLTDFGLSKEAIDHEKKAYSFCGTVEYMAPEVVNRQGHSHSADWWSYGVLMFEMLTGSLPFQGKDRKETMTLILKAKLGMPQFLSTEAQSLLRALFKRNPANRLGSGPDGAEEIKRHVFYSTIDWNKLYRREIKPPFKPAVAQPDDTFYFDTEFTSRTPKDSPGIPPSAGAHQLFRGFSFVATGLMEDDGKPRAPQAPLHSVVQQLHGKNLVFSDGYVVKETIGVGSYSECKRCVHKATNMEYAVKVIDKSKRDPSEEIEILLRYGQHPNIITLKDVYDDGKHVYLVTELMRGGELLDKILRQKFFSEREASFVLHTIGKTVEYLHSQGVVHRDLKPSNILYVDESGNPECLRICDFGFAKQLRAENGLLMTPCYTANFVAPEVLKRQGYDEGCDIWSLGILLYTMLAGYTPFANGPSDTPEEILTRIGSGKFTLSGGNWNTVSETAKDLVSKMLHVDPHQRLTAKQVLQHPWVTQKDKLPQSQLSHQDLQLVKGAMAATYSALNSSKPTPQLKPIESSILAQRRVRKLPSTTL
Outline: as §1

[9] = target: MAP2K3 (Homo sapiens (Human), UniProt P46734); experiment: KINATIV assay; conditions: 1 μM, 90 minutes, BCWM.1 cells
Chain of MAP2K3 (P46734 whole entry): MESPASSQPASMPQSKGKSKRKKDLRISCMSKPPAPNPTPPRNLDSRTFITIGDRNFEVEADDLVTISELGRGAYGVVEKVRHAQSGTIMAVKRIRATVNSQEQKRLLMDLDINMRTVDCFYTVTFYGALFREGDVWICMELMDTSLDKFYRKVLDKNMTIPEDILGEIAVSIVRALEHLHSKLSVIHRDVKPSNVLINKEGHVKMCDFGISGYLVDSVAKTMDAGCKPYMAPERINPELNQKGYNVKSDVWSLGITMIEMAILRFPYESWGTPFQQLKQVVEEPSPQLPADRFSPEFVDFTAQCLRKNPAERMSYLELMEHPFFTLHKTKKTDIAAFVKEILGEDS
Outline: as §1

[10] = target: kinases in BCWM.1 cells (Homo sapiens, UniProt Q00536)
Method: (§2) The cells were harvested and lysed. […] Bound kinases were identified and quantitated by ACTIVX as described in Patricelli et al., Biochemistry, 2007, 46(2): 350-358. The compounds were tested in duplicates against duplicate or quadruplicate control samples.

[11] = target: kinases in BCWM.1 cells (Homo sapiens, UniProt Q9Y4K4); conditions: KHS1; Lys1; 1 μM; GF
Method: as §2

[12] = target: kinases in BCWM.1 cells (Homo sapiens, UniProt P41279); conditions: COT; ATP Loop; 1 μM; GF
Method: as §2

[13] = target: kinases in BCWM.1 cells (Homo sapiens, UniProt Q86XP1); conditions: DGKH; ATP; 1 μM; GF
Method: as §2

[14] = target: kinases in BCWM.1 cells (Homo sapiens, UniProt P07948); conditions: LYN; Lys1; 1 μM; GF
Method: as §2

[15] = target: kinases in BCWM.1 cells (Homo sapiens, UniProt Q8IU85); conditions: CaMKld; Lys1; 1 μM; GF
Method: as §2

[16] = target: kinases in BCWM.1 cells (Homo sapiens, UniProt P19784); conditions: CK2a2; Lys2; 1 μM; GF
Method: as §2

[17] = target: kinases in BCWM.1 cells (Homo sapiens, UniProt O94804); conditions: LOK; Lys2; 1 μM; GF
Method: as §2

[18] = target: kinases in BCWM.1 cells (Homo sapiens, UniProt P51956); conditions: NEK3; Activation Loop; 1 μM, 90 min; GF
Method: as §2

[19] = target: kinases in BCWM.1 cells (Homo sapiens, UniProt P09769); conditions: FGR; Activation Loop; 1 μM; GF
Method: as §2

[20] = target: kinases in BCWM.1 cells (Homo sapiens, UniProt Q9P2K8); conditions: GCN2; Lys2; 1 μM; GF
Method: as §2

[21] = target: kinases in BCWM.1 cells (Homo sapiens, UniProt Q8NB16); conditions: MLKL; Lys1; 1 μM; GF
Method: as §2

[22] = target: kinases in BCWM.1 cells (Homo sapiens, UniProt P51451); conditions: BLK; Activation Loop; 1 μM; GF
Method: as §2

[23] = target: kinases in BCWM.1 cells (Homo sapiens, UniProt Q96RR4); conditions: CaMKK2; Lys2; 1 μM; GF
Method: as §2

[24] = target: kinases in BCWM.1 cells (Homo sapiens, UniProt Q16584); conditions: MLK3; Lys2; 1 μM; GF
Method: as §2

[25] = target: kinases in BCWM.1 cells (Homo sapiens, UniProt O14920); conditions: IKKb; Lys2; 1 μM; GF
Method: as §2

[26] = target: kinases in BCWM.1 cells (Homo sapiens, UniProt P31749); conditions: AKT1; ATP Loop; 1 μM; GF
Method: as §2

[27] = target: kinases in BCWM.1 cells (Homo sapiens, UniProt Q16659); conditions: Erk3; Lys2; 1 μM; GF
Method: as §2

[28] = target: kinases in BCWM.1 cells (Homo sapiens, UniProt Q16513); conditions: PKN2; Lys2; 1 μM, 90 min; GF
Method: as §2

[29] = target: kinases in BCWM.1 cells (Homo sapiens, UniProt P45985); conditions: MAP2K4; Lys2; 1 μM; GF
Method: as §2

[30] = target: kinases in BCWM.1 cells (Homo sapiens, UniProt P54762); conditions: EphB1; Activation Loop; 1 μM; GF
Method: as §2

[31] = target: kinases in BCWM.1 cells (Homo sapiens, UniProt Q9Y2K2); conditions: QSK; Lys2; 1 μM, 90 min; GF
Method: as §2

Chain of MAP2K4 (P45985 whole entry): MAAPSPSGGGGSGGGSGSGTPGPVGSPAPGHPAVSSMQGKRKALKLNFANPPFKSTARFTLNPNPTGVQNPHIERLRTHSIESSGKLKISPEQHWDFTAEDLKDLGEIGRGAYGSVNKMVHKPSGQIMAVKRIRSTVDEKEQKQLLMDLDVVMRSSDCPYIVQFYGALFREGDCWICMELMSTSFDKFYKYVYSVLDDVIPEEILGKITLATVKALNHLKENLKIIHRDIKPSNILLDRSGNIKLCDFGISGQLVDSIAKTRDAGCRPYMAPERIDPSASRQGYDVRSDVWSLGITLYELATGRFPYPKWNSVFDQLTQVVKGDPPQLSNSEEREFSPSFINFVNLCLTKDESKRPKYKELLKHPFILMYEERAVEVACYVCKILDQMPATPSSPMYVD

## C=CC(=O)N1CCC(CNc2nccc(Nc3ncc(C(=O)Nc4c(C)cccc4C)s3)n2)C1 (racemic) [Example I-8]
[1]
  % change of MS signal compared to control sample: −8.5% and −6.1%
[2]
  % change of MS signal compared to control sample: 2.0% and 2.4%
[3]
  % change of MS signal compared to control sample: −7.7% and −4.8%
[4]
  % change of MS signal compared to control sample: 15.3% and 24.7%

## C=CC(=O)N1CCC(Cn2ccc(Nc3ncc(C(=O)Nc4c(C)cccc4Cl)s3)n2)C1 (stereo not shown) [II-1]
[5]
  % change of MS signal compared to control sample: −11.2% and −8.0%
[6]
  % change of MS signal compared to control sample: 15.9% and 18.5%
[7]
  % change of MS signal compared to control sample: 0.5% and −0.2%
[8]
  % change of MS signal compared to control sample: −76.3%
[9]
  % change of MS signal compared to control sample: −19.5% and −15.9%

## C=CC(=O)N1CC[C@@H](Nc2nccc(Nc3ncc(C(=O)Nc4c(C)cccc4C)s3)n2)C1 [Example I-4]
[1]
  % change of MS signal compared to control sample: −48.8%
[5]
  % change of MS signal compared to control sample: −7.1% and −7.2%
[6]
  % change of MS signal compared to control sample: 17.8% and 25.9%
[7]
  % change of MS signal compared to control sample: 17.4%
[4]
  % change of MS signal compared to control sample: 24.1%
[8]
  % change of MS signal compared to control sample: −62.2% and −53.4%
[9]
  % change of MS signal compared to control sample: −12.3% and −18.8%

## C=CC(=O)N1CCCCC(Nc2nccc(Nc3ncc(C(=O)Nc4c(C)cccc4C)s3)n2)C1 (stereo not shown) [Example I-7]
[2]
  % change of MS signal compared to control sample: −12.2% and −4.1%
[3]
  % change of MS signal compared to control sample: −5.8% and −5.3%

## CCC(=O)N1CC[C@H](Nc2nccc(Nc3ncc(C(=O)Nc4c(C)cccc4C)s3)n2)C1 [Example I-9]
[10]
  % change of MS signal compared to control sample: 6.5%
[11]
  % change of MS signal compared to control sample: −7.5% and −8.7%
[12]
  % change of MS signal compared to control sample: −37.3% and −40.3%
[13]
  % change of MS signal compared to control sample: −21.2% and −12.5%
[14]
  % change of MS signal compared to control sample: 85.2% and 94%
[15]
  % change of MS signal compared to control sample: −7.5% and −4.6%
[16]
  % change of MS signal compared to control sample: 7% and −1.8%
[17]
  % change of MS signal compared to control sample: 26.2% and 15.2%
[18]
  % change of MS signal compared to control sample: −3.2%
[19]
  % change of MS signal compared to control sample: 84.7% and 72.1%
[20]
  % change of MS signal compared to control sample: −18.8% and −10.7%
[21]
  % change of MS signal compared to control sample: −4.7% and −3.9%
[22]
  % change of MS signal compared to control sample: 93.7% and 95.4%
[23]
  % change of MS signal compared to control sample: −4.9% and 0.5%
[24]
  % change of MS signal compared to control sample: 24.1%
[25]
  % change of MS signal compared to control sample: 0.4% and −1.4%
[26]
  % change of MS signal compared to control sample: −25.1% and −16.8%
[27]
  % change of MS signal compared to control sample: 16.9% and 25.3%
[28]
  % change of MS signal compared to control sample: 13.6%
[29]
  % change of MS signal compared to control sample: −5.4% and −2.1%
[30]
  % change of MS signal compared to control sample: 53.3% and 78.9%
[31]
  % change of MS signal compared to control sample: 2.5%
